pIC50: −log10 of the molar value. Activity calls are given as the source filed them. No cut-off for these calls is given here.

Series [1] addresses P2X purinoceptor 2 (Homo sapiens) (UniProt Q9UBL9). The experiment in a line: Antagonist activity at P2X2 (unknown origin) assessed as inhibition of BzATP-induced calcium flux up to 10 uM preincubated for 30 mins followed by BzATP addition measured over 180 secs by FLIPR assay.
Another series relates to Cynomolgus monkey. The experiment in a line: Oral bioavailability in cynomolgus monkey at 5 mg/kg by LC-MS/MS analysis. It is filed as ADME, organism-based, Macaca fascicularis. The settings on record: in vivo.
The nature of series [2]: Metabolic stability in cynomolgus monkey liver microsomes at 1 uM after 5 to 60 mins by LC-MS/MS analysis. It is filed as ADME, Macaca fascicularis, microsome.
A short description of series [3]: Drug uptake in dog brain at 3 mg/kg, po after 168 hrs. The class given is ADME, organism-based, Canis lupus familiaris. The settings on record: read-out: Drug uptake.
A short description of series [4]: Clearance in beagle dog at 0.5 mg/kg, iv or 2.5 mg/kg, po by LC-MS/MS analysis. The class given is ADME, organism-based, Canis lupus familiaris. The settings on record: in vivo.
Series [5] relates to Canis familiaris. Nature of the series: Toxicity in dog at 30 to 300 mg/kg administered via oral gavage on day 1 and day 5 by histopathological method. The class given is organism-based, Canis lupus familiaris. The settings on record: in vivo.
Series [6] addresses P2X purinoceptor 7 (Homo sapiens) (UniProt Q99572). The conditions noted are these: 100 pM.
Description: Displacement of [3H]-(6S)-7-[[2-chloro-3-(trifluoromethyl)phenyl]methyl]-6-methyl-3-pyrimidin-2-yl-5,6dihydro[1,2,4]triazolo[4,3-a]pyrazin-8-one from P2X7 in human superior frontal gyrus at 100 pM to 10 uM
Series [7] in a line: Protein binding in rat brain at 5 uM after 5 hrs by equilibrium dialysis method. It is filed as ADME, tissue-based. The settings on record: read-out: PB (converted).
Another series concerns the target P2X purinoceptor 7 (Mus musculus, UniProt Q9Z1M0). The experiment in a line: Antagonist activity at mouse P2X7 assessed as inhibition of BzATP-induced calcium flux preincubated for 30 mins followed by BzATP addition measured over 180 secs by FLIPR assay.
For series [8], the system named is Canis familiaris. Nature of the series: Inhibition of LPS/Bz-ATP-induced IL-1beta release in dog blood at 3 mg/kg, po after 4 to 96 hrs. It is filed as functional, organism-based. The conditions noted are these: Canis lupus familiaris.
The target in the next series is T1, Cytochrome P450 2C8 (Homo sapiens, UniProt P10632).
T1 sequence (P10632 whole entry): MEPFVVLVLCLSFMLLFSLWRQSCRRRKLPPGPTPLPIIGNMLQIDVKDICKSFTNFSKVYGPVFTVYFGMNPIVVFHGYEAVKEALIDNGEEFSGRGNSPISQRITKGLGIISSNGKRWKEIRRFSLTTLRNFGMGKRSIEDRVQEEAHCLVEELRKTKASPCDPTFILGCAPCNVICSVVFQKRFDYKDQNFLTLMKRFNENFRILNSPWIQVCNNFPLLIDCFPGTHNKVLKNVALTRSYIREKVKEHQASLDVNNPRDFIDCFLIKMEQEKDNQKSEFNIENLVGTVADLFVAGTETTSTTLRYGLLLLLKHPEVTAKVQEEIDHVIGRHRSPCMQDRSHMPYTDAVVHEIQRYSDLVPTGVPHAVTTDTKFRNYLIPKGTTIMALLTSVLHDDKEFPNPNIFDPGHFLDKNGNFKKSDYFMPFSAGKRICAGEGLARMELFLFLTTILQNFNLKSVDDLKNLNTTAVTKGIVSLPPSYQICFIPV
The experiment in a line: Inhibition of CYP2C8 in human liver microsomes using paclitaxel as substrate after 15 mins by LC-MS/MS analysis. The class given is ADME.

Series [9] is described as follows: Volume of distribution at steady state in Sprague-Dawley rat at 1 mg/kg, iv or 5 mg/kg, po by LC-MS/MS analysis. It is filed as ADME, organism-based. The settings on record: in vivo, read-out: Vdss.
Another series relates to Liver. Nature of the series: Metabolic stability in rat liver microsomes at 1 uM after 5 to 60 mins by LC-MS/MS analysis. The class given is ADME, microsome.
The target of series [10] is P2X purinoceptor 1 (Homo sapiens) (UniProt P51575). The experiment in a line: Antagonist activity at P2X1 (unknown origin) assessed as inhibition of BzATP-induced calcium flux up to 10 uM preincubated for 30 mins followed by BzATP addition measured over 180 secs by FLIPR assay.
A further series concerns Hepatocyte. The experiment in a line: Metabolic stability in hepatocytes (unknown origin). The class given is ADME, cell-based.
In the next series the target is P2X purinoceptor (Macaca mulatta, UniProt G7N604). The experiment in a line: Antagonist activity at macaque P2X7 assessed as inhibition of BzATP-induced calcium flux preincubated for 30 mins followed by BzATP addition measured over 180 secs by FLIPR assay.
P2X purinoceptor, sequence (G7N604 whole entry): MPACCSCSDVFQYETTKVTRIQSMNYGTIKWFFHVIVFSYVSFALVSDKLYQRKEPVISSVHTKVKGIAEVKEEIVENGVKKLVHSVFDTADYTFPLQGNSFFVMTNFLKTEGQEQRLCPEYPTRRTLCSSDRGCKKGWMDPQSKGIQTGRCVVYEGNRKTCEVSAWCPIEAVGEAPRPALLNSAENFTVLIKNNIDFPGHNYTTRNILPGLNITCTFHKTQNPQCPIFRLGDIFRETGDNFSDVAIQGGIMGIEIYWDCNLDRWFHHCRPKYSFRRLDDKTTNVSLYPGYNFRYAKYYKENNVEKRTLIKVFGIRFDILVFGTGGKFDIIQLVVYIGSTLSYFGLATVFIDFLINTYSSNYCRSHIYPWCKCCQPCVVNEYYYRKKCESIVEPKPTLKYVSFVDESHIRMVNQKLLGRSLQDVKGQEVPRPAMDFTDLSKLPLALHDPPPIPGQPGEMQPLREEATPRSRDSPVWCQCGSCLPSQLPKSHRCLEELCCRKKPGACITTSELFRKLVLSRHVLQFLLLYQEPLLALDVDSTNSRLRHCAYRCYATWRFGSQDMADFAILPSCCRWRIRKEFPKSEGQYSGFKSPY

P2X purinoceptor 7 (Homo sapiens), sequence (Q99572 whole entry): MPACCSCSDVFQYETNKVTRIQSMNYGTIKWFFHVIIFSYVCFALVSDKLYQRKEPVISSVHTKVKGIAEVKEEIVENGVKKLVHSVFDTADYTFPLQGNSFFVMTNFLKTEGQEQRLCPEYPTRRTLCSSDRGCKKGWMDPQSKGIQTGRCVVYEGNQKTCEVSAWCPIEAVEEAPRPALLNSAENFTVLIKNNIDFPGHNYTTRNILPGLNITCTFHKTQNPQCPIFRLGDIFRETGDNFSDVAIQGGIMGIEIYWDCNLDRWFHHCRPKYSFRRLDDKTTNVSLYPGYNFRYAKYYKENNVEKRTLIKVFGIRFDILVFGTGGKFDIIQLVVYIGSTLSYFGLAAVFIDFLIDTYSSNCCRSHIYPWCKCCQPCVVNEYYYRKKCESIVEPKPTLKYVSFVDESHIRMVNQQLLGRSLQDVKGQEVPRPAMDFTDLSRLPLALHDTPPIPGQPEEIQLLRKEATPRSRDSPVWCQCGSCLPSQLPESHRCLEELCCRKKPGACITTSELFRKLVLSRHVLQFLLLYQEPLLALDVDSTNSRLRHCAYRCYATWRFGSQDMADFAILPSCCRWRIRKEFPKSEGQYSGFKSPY
P2X purinoceptor 7, sequence (Q9Z1M0 whole entry): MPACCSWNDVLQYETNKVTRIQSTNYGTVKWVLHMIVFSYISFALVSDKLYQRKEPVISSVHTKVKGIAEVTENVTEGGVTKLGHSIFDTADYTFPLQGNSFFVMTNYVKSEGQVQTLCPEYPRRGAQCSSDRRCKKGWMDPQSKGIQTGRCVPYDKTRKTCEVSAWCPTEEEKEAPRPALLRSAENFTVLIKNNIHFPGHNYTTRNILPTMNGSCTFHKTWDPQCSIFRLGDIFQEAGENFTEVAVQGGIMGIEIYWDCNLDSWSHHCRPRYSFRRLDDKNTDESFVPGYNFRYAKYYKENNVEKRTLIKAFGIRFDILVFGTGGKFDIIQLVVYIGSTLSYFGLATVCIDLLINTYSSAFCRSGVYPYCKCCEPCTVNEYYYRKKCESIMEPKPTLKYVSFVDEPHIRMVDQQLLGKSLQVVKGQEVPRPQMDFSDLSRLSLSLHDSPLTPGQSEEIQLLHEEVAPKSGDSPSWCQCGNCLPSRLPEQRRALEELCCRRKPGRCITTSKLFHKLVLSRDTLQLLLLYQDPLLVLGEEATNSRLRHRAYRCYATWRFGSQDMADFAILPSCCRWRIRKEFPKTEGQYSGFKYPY
P2X purinoceptor 2 (Homo sapiens), sequence (Q9UBL9 whole entry): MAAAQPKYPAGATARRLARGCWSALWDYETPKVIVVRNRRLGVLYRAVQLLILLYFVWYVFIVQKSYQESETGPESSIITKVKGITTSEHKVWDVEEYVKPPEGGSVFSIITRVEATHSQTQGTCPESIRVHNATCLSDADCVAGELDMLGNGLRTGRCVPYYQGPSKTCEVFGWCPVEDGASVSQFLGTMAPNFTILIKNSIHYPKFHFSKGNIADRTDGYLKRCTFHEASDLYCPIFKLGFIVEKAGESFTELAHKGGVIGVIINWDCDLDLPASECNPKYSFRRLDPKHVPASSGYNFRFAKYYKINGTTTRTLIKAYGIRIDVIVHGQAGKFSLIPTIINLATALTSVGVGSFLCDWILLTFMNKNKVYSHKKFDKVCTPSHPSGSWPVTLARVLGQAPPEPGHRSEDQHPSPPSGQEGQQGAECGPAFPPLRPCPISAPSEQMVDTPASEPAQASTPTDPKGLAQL
P2X purinoceptor 1 (Homo sapiens), sequence (P51575 whole entry): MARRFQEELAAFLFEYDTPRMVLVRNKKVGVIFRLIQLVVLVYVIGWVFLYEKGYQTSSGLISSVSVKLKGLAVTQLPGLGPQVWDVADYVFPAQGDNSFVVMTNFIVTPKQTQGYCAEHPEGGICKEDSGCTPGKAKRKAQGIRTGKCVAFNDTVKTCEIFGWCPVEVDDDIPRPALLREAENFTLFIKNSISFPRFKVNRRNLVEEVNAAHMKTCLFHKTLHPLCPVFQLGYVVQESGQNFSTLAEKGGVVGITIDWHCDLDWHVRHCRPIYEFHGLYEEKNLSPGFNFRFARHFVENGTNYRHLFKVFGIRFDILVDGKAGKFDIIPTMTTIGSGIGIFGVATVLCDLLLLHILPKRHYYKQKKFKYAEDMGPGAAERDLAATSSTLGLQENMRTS

With `C[C@@H]1c2nnn(-c3ncc(F)cn3)c2CCN1C(=O)c1cccc(C(F)(F)F)c1Cl` [JNJ-54175446], the inhibition entry in [1] and in series [10] was “inactive” each time. This molecule also registered a F in the series on Cynomolgus monkey of 157%. Besides, the Stability result (in series [2]; in the series on Liver; in the series with Hepatocyte) was “Stable” each time. Besides, the concentration at 168 h in series [3] is at most 500 nM. The clearance in series [4] is 0.9 mL/min/kg. Further, the Activity entry in the series on Canis familiaris [5] was “Non-Toxic”. Moreover, the inhibition result in series [6] was “Dose-dependent effect”. The fraction unbound at 5 h, 5 µM in [7] is 0.051. Moreover, the negative-log IC50 (pIC50) at P2X purinoceptor 7 is 7.80; against Cytochrome P450 2C8 it was 5.02; at P2X purinoceptor, 8.10. Further, the inhibition result with Canis familiaris [8] is “Active”. Further, the Vd in series [9] was found to be 2.1 L/kg.

For the origin of these results see ChEMBL document CHEMBL4052642, “4-Methyl-6,7-dihydro-4H-triazolo[4,5-c]pyridine-Based P2X7 Receptor Antagonists: Optimization of Pharmacokinetic Properties Leading to the Identification of a Clinical Candidate” (J Med Chem, 2017).
